{
  "source": "patent US20210315915A1",
  "about": "“PHARMACEUTICAL COMPOSITIONS OF RIBAVIRIN” (GlaxoSmithKline Intellectual Property (No.2) Limited, priority 2015, published 2021)",
  "origin": "cited, not measured here",
  "key": {"[1]": {"details": "crystalline white powder"}, "[2]": {"details": "FDA approved labeling of Rebetol"}},
  "data": [
    {"compound": "NC(=O)c1ncn([C@@H]2O[C@H](CO)[C@@H](O)[C@H]2O)n1", "note": "[ribavirin, 1-β-D-ribofuranosyl-1H-1,2,4-triazole-3-carboxamide]", "values": [
      {"measurement": "solubility in ethanol (96%)", "setting": "[1]", "result": "slightly soluble"},
      {"measurement": "solubility in water", "setting": "[1]", "result": "freely soluble"},
      {"measurement": "multiple-dose half-life", "setting": "[2]", "result": 12, "unit": "days"},
      {"measurement": "persistence in nonplasma compartments", "setting": "[2]", "result": "≤ 6", "unit": "months"}
    ]}
  ]
}
